Where two headings read alike, the source gives them in different places.
Assays:
Type in all cases: cell-based
[1] = biological target: T1, AhR (Mus musculus, UniProt P30561); experiment: In vitro assay 2: XRE-luciferase reporter assay, antagonism in mouse cell line (Hepa1c1c7); conditions: Hepa1c1c7 XRE-Luc, 6 hours
T1 sequence (P30561 1-848): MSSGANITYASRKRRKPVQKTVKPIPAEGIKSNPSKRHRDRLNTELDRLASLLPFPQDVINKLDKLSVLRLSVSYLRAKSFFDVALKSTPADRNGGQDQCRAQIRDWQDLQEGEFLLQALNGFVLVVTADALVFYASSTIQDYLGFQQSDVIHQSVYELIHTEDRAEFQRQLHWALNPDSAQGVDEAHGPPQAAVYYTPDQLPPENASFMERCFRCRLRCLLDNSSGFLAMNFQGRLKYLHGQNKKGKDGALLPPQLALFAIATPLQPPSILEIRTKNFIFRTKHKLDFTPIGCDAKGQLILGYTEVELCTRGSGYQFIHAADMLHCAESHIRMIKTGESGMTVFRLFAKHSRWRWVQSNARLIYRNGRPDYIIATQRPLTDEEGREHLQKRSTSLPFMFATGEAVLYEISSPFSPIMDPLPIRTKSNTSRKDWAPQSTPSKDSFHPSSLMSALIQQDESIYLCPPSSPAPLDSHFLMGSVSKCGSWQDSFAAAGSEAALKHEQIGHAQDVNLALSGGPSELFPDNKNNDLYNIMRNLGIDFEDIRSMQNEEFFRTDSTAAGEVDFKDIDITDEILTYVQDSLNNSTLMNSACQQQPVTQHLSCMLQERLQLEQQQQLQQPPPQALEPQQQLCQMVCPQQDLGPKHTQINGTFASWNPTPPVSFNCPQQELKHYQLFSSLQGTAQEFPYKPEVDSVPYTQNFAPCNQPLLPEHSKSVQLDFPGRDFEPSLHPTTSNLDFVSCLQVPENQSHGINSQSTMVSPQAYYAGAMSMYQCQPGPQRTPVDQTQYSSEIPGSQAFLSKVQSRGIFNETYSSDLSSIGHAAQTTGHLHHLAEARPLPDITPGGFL
From the text: (§1) In Vitro XRE-Luciferase Reporter Assay (In Vitro Assay 1, 2, 3)
(§2) AhR activation leads the induction of target gene expression such as CYP1A1 and CYP1B1 by AhR binding to AhR-responsive DNA elements also known as xenobiotics responsive elements (XRE). The assay for measuring AhR activity herein is the luciferase assay using cell lines transfected with luciferase reporter plasmid containing XREs at the upstream of the reporter gene. Cells transfected with XRE-luciferase reporter (XRE-Luc) plasmid drive luciferase activity reflecting activation and inhibition of AhR in the cells. In addition to transfection with XRE-reporter vector, cells were co-transfected with Nano-luciferase reporter gene construct (Nano-Luc) containing constitutively active promoter as internal control. Kynurenine (an endogenous AhR agonist) was used to stimulate cells to test antagonistic properties of the compounds. The half-maximal inhibitory concentration (IC50) or half-maximal effective concentration (EC50) value was calculated using nonlinear regression (four parameters) with Prism8.0 software (GraphPad).
In Vitro Assay 2: Antagonism in Mouse Cell Line
Hepa1c1c7 (murine liver cancer cell line) cells co-transfected with XRE-Luc and Nano-Luc plasmids were plated in complete medium and incubated overnight at 37° C. in a CO2 incubator. Following incubation, cells were treated with AhR activating ligands such as kynurenic acid, kynurenine(#) with or without test compounds for 6 hours. Firefly luciferase and Nano-luciferase activity was measured using Nano-glo Luciferase kit (Promega) and relative luciferase activity (Firefly/Nano-Luc) was used to calculate IC50 values. The relative luciferase activity was further normalized with agonists alone group as the maximum control and the vehicle group as the minimum control. (IC50 Values are grouped as A, B, C and D, whereby A: IC50<0.01 μM; B: 0.01<IC50<0.1 μM; C: 0.1<IC50<1.0 μM; D: IC50>1.0 μM)

[2] = biological target: T2, AhR (Homo sapiens, UniProt P35869); experiment: In vitro assay 4: endogenous AhR activity assay (CYP1A1 and CYP1B1 mRNA, qRT-PCR, HepG2 cells); conditions: TCDD 10 nM with compound 123 nM, 4 hours, mRNA relative to β-actin, read-out: CYP1A1 (% Inhibition)
T2 construct: host or cells: HepG2
T2 sequence (P35869 11-848): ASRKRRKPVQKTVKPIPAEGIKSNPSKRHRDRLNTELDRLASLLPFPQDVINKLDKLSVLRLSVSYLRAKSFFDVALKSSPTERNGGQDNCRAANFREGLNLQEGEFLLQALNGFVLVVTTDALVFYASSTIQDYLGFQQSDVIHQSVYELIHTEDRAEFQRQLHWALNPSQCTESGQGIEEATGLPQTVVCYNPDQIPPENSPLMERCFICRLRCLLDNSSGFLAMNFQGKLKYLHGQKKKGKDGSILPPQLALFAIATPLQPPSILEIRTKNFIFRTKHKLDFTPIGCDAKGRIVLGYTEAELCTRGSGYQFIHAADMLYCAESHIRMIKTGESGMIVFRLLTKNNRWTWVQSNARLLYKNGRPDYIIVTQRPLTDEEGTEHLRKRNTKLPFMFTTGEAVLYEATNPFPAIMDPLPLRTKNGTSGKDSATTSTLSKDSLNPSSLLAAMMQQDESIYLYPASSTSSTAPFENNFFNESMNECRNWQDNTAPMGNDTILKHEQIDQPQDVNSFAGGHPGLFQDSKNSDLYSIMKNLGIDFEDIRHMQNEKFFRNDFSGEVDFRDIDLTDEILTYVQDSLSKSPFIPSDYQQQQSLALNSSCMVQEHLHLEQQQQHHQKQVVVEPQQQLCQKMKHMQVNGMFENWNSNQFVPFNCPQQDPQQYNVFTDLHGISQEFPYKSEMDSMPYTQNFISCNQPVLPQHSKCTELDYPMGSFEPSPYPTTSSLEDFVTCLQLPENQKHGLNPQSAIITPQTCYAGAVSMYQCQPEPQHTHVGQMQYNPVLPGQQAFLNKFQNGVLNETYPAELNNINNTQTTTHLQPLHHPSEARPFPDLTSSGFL
Experimental: In Vitro Assay 4: Endogenous AhR Activity Assay
HepG2 cells were seeded in 12-well plate (3×10^5 cells/well). A day after seeding, the cells were treated with TCDD (10 nM) alone or with compounds (123 nM) for 4 hours. Total RNA was extracted using Trizol (Thermo Fisher Scientific). cDNA synthesis and quantitative RT-PCR (qRT-PCR) assays were performed using PrimeScript™ RT Master Mix (TAKARA) and TB Green™ Premix Ex Taq™ II (TAKARA) in accordance with manufacturer's instruction. For the measurement of endogenous AhR activity, relative mRNA levels of CYP1A1 and CYP1B1 were quantitated relative to β(beta)-actin mRNA by the comparative Ct (ΔΔCt) method. The percent inhibitions were calculated according to: […]

[3] = biological target: T2, AhR; experiment: In vitro assay 3: XRE-luciferase reporter assay, agonism in human cell line (HepG2); conditions: HepG2 XRE-Luc, tryptophan free medium, test compound alone, 6 hours
From the text: as §1, §2
In Vitro Assay 3: Agonism in Human Cell Line
HepG2 (human hepatoma cell line) cells co-transfected with XRE-Luc and Nano-Luc plasmids were plated in tryptophan free medium containing 1% of dialyzed fetal bovine serum and incubated overnight at 37° C. in a CO2 incubator. After 24 hours, cells were treated for 6 hours with test compounds or not. Firefly luciferase and Nano-luciferase activity was measured using Nano-glo Luciferase kit (Promega) and relative luciferase activity (Firefly/Nano-Luc) was used to calculate EC50 values. As a positive control, cells were incubated with TCDD. (EC50 Values are grouped as A, B, C and D, whereby A: EC50<0.1 μM; B: 0.1<EC50<1.0 μM; C: 1.0<EC50<10 μM; D: EC50>10 μM)

[4] = biological target: T2, AhR; experiment: In vitro assay 1: XRE-luciferase reporter assay, antagonism in human cell line (HepG2); conditions: HepG2 XRE-luciferase, cells treated with kynurenine 200 μM (no *), 6 hours; read-out: Assay 1: AhR-Luc Human Antagonism (IC50)
Method in brief: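 HepG2 cells carrying XRE-firefly luciferase (transient or stable) plus constitutive Nano-Luc control, stimulated 6 h with kynurenine (50 or 200 μM) with or without compound. Firefly/Nano-Luc ratio normalized to kynurenine-alone (maximum) and vehicle (minimum); IC50 by four-parameter nonlinear regression.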

[5] = cells treated with kynurenine (#)
[6] = read-out: Assay 3: AhR-Luc Human Agonism (EC50)
[7] = read-out: Assay 3: AhR-Luc Human Agonism (EC50, nM), class in brackets
[8] = AhR activating ligand such as kynurenic acid (no #)

SMILES | IC50 [1, 5] | inhibition at 0.123 µM [2] | EC50 [3, 6] | EC50 [3, 7] | IC50 [4] | IC50 [1, 8]
CC(CO)n1cnc2c(-c3cccnc3)nc(-c3ccc(N4CCOCC4)cc3)cc2c1=O (centres unmarked) [Example 75, 3-(1-hydroxypropan-2-yl)-6-(4-morpholinophenyl)-8-(pyridin-3-yl)pyrido[3,4-d]pyrimidin-4(3H)-one] | 10 to 100 nM | 101% | > 30000 nM | > 10000 nM | < 10 nM | –
O=c1c2cc(-c3ccc(C(F)(F)F)cc3)nc(-c3cccnc3)c2ncn1CC(O)CO (centres unmarked) [Example 66, 3-(2,3-dihydroxypropyl)-8-(pyridin-3-yl)-6-(4-(trifluoromethyl)phenyl)pyrido[3,4-d]pyrimidin-4(3H)-one] | 10 to 100 nM | 100% | – | – | < 10 nM | –
CC(=O)NCC(C)n1cnc2c(-c3cccnc3)nc(-c3ccc(Cl)cc3)cc2c1=O (centres unmarked) [Example 88, N-(2-(6-(4-chlorophenyl)-4-oxo-8-(pyridin-3-yl)pyrido[3,4-d]pyrimidin-3(4H)-yl)propyl)acetamide] | 10 to 100 nM | 99.2% | > 30000 nM | > 10000 nM | < 10 nM | –
O=c1c2cc(-c3ccc(Cl)cc3)nc(-c3cccnc3)c2ncn1[C@H]1CC[C@H](O)CC1 [Example 56, 6-(4-chlorophenyl)-3-((1r,4r)-4-hydroxycyclohexyl)-8-(pyridin-3-yl)pyrido[3,4-d]pyrimidin-4(3H)-one] | – | 101% | > 30000 nM | > 10000 nM | < 10 nM | < 10 nM
CC(=O)N1CCC(n2cnc3c(-c4cccnc4)nc(-c4ccc(Cl)cc4)cc3c2=O)CC1 [Example 96, 3-(1-acetylpiperidin-4-yl)-6-(4-chlorophenyl)-8-(pyridin-3-yl)pyrido[3,4-d]pyrimidin-4(3H)-one] | – | 99.9% | > 30000 nM | > 10000 nM | < 10 nM | < 10 nM
